Assay [1] deals with T1, SOCE (ICRAC) reconstituted by STIM1 and Orail (CRACM1) (Homo sapiens, UniProt Q96D31).
T1 construct: expressed in transfected cells; host or cells: HEK293 cells
As to the kind of experiment: ICRAC whole cell patch clamp in HEK293 cells forcibly expressing STIM1 and Orail (CRACM1). The note with it: inward current at −80 mV. Format: cell-based. An excerpt: FIG. 2 is a drawing showing an Icrac inhibitory effect of 163AE, and the vertical axis and the horizontal axis show the same as in FIG. 1.
The effects of 162AE (bis(3,3′-(phenylaminoethoxyboryl)benzyl)ether described in Example 8) and 163AE (bis(4,4′-(phenylaminoethoxyboryl)benzyl)ether described in Example 131) for ICRAC, whose molecular entity as one of SOCE has been clarified, were investigated using an electrophysiological method. STIM1 and Orail (CRACM1) were forcibly expressed in HEK293 cells, and whole cell records were taken by the Patch clamp technique. BAPTA (20 mM), which is a calcium chelator, and IP3 (20 μM) that depletes intracellular calcium store were added to a recording electrode internal solution (120 mM Cs-glutamate, 10 mM HEPES, 3 mM MgCl2), 10 mM calcium was added to an extracellular solution to facilitate observation of calcium electric current, and a ramp command from −150 mV to +150 mV was input at 0.5 Hz to obtain a current-voltage curve. For quantification of SOCE, the size of the inward current at −80 mV was used as an index. After the start of the whole cell recording, time was taken to sufficiently activate SOCE (ICRAC), and compounds 162AE and 163AE as inhibitors were administered to the cells. […]
Background: In patch-clamp work, channel activity is measured electrically.

The test system of assay [2] is SOC (store operated calcium channel). As to the kind of experiment: Measurement of SOC IC50 (thapsigargin store depletion, calcium re-addition, CHO cells). Format: cell-based. The note with it: read-out: SOC IC50. The procedure:
The SOC (store operated calcium channel)-suppressive action can be measured by the method described in the Example and using, for example, FDSS 3000.
CHO cell culture medium was replaced with a BSS solution which is an extracellular fluidfree of calcium, the compound of the present invention was added 1 min later, and 1 μM thapsigargin was allowed to act thereon 2 min later to deplete intracellular calcium store. […]

For the next assay, the system named is transglutaminase (TGase). As to the kind of experiment: Measurement of TG (TGase inhibitory activity, monodansyl cadaverine / N,N-dimethylcasein fluorescence, FDSS 3000). Format: biochemical. Put shortly: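 Compound (1 μL of 10 mM stock) added to 0.1 mL reaction: 100 mM HEPES-NaOH pH 7.5, 1 mM CaCl2, 20 μM monodansyl cadaverine, 0.05 mg/mL N,N-dimethylcasein, 5 μg/mL TGase. Rate of fluorescence change at 340 nm measured; DMSO control set to 100; TG50 is the concentration halving activity.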

Assay [3] has as its system Truncated N-terminal huntington 150 Q-EGFP-Neuron 2a cells. As to the kind of experiment: Measurement of x-Fold (polyglutamine aggregation inhibitory activity). The assay is classed as cell-based. The procedure:
In the present invention, the polyglutamine aggregation inhibitory activity (x-Fold) can be measured, for example, by the method described in the Example.
The number of the aggregated cells, and the total number of cells were counted by Array Scan V T1 (manufactured by Cellomics, Pittuburg, USA), and the ratio of the aggregated cells to the total number of cells was determined (x-Fold). […]

The mark [4] stands for this setting: CHO cells, 1 μM thapsigargin, 2 mM calcium chloride.
Where [5] appears, read: TGase activity with compound (10 mM, 1 μL in 0.1 ml enzyme reaction solution), DMSO control taken as 100.
Where [6] appears, read: TGase inhibitory activity value, Table 1.
Setting [7] is: polyglutamine aggregation inhibitory activity, Table 1.
Where [8] appears, read: ratio of aggregated cells to total number of cells, compound 20 μM, 20 hr, almost 1 without compound, smaller = stronger inhibition.
The mark [9] stands for this setting: Cricetulus griseus, CHO, CHO cells, 1 μM thapsigargin, 2 mM calcium chloride.
Where [10] appears, read: TGase inhibitory activity measurement, unit not given.
Where [11] appears, read: polyglutamine aggregation, Truncated N-terminal huntington 150 Q-EGFP-Neuron 2a cells.

Where two headings read alike, the source gives them in different places.

T1 sequence (Q96D31 whole entry): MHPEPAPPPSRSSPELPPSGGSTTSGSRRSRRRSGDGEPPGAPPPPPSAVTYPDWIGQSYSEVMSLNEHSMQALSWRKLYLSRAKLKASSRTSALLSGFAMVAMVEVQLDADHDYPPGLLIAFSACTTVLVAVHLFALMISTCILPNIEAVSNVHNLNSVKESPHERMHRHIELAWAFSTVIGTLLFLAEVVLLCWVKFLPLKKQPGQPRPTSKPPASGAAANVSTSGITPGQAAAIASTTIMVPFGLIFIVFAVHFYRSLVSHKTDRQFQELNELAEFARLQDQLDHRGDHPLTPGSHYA

In the case of `NCCOB(c1ccccc1)c1cccc(COCc2cccc(B(OCCN)c3ccccc3)c2)c1` [Example 8, bis(3,3′-(phenylaminoethoxyboryl)benzyl)ether], the figures for the IC50 in assay [1] and in assay [2] (setting [4]) were 86 nM and 200 nM, respectively. The “TGase activity remaining (% of DMSO control = 100)” value in the assay with transglutaminase (TGase) (setting [5]) and with transglutaminase (TGase) (setting [6]) was 24 throughout. In addition, the x-Fold in assay [3] (setting [7]) and in assay [3] (setting [8]) was 1.1 in each case.

Regarding `NCCOB(c1ccccc1)c1ccc(COCc2ccc(B(OCCN)c3ccccc3)cc2)cc1` [Example 131, bis((4,4′-phenylaminoethoxyboryl)benzyl)ether], the IC50 (usually the point on the concentration scale where inhibition reaches its midpoint) was determined as 170 nM in assay [1]; 300 nM in assay [2] (setting [9]); 300 nM in assay [2] (Cricetulus griseus, CHO, Table 1). The x-Fold in assay [3] (setting [7]) and in assay [3] (setting [8]) was 1.1 in each case.

Take `NCCCCC(N)C(=O)OB(c1ccccc1)c1cccc(COCc2cccc(B(OC(=O)C(N)CCCCN)c3ccccc3)c2)c1` (centres unmarked) [Example 475, bis(3,3′-(phenyl-lysineboryl)benzyl)ether]: in assay [2] (setting [4]), the IC50 came to 600 nM. The “TGase activity remaining (% of DMSO control = 100)” value in the assay on transglutaminase (TGase) (setting [5]) and in the assay on transglutaminase (TGase) (setting [10]) was 21 in each case. The x-Fold in assay [3] (setting [11]) and in assay [3] (setting [8]) was 1.01 throughout.

As to `NCCCC(N)C(=O)OB(c1ccccc1)c1cccc(COCc2cccc(B(OC(=O)C(N)CCCN)c3ccccc3)c2)c1` (centres unmarked) [Example 476, bis(3,3′-(phenyl-ornithineboryl)benzyl)ether], the IC50 in assay [2] (setting [4]) came to 1500 nM. Further, the “TGase activity remaining (% of DMSO control = 100)” value with transglutaminase (TGase) (setting [5]) and in the assay on transglutaminase (TGase) (setting [10]) was 103 each time. Further, the x-Fold in assay [3] (setting [11]) and in assay [3] (setting [8]) was 0.95 throughout.

In the case of `NC(COB(c1ccccc1)c1ccc(COCc2ccc(B(OCC(N)Cc3ccccc3)c3ccccc3)cc2)cc1)Cc1ccccc1` (centres unmarked) [Example 479, bis(4,4′-(phenyl-2-benzyl-2-amino-ethoxyboryl)benzyl)ether], the 50% inhibitory concentration (IC50) in assay [2] (setting [4]) is 1500 nM. Besides, the “TGase activity remaining (% of DMSO control = 100)” value with transglutaminase (TGase) (setting [5]) and with transglutaminase (TGase) (setting [10]) was 54 throughout. Also, the x-Fold in assay [3] (setting [11]) and in assay [3] (setting [8]) was 1.00 each time.

Consider `NC(COB(c1ccccc1)c1ccc(Oc2ccc(B(OCC(N)Cc3ccccc3)c3ccccc3)cc2)cc1)Cc1ccccc1` (centres unmarked) [Example 480, bis(4,4′-(phenyl-2-benzyl-2-amino-ethoxyboryl)phenyl)ether], for which, in assay [2] (setting [4]), the concentration for half-maximal inhibition (IC50) came out at 1500 nM. Besides, the “TGase activity remaining (% of DMSO control = 100)” value with transglutaminase (TGase) (setting [5]) and in the assay with transglutaminase (TGase) (setting [10]) was 59 throughout. Moreover, the x-Fold in assay [3] (setting [11]) and in assay [3] (setting [8]) was 0.66 throughout.

As for `OB(c1ccccc1)c1ccccc1COCc1ccccc1B(O)c1ccccc1` [Example 486, bis(2,2′-(phenylhydroxyboryl)benzyl)ether], the IC50 in assay [2] (setting [4]) was 500 nM. The “TGase activity remaining (% of DMSO control = 100)” value with transglutaminase (TGase) (setting [5]) was determined as 52. In addition, the x-Fold in assay [3] (setting [8]) was 1.04.

Consider `NCCOB(c1ccccc1)c1ccccc1` [Example 487, 2-aminoethyl diphenylborinate], for which, in assay [2] (Cricetulus griseus, CHO), the half-maximal inhibitory concentration (IC50) turned out to be 3000 nM. In addition, the “TGase activity remaining (% of DMSO control = 100)” value in the assay on transglutaminase (TGase) (setting [5]) came out at 90. The x-Fold in assay [3] (setting [8]) was determined as 0.64.

On to `OB(c1ccccc1)c1ccccc1` [Example 488, diphenylborinic acid], for which the IC50 is 4000 nM in assay [2] (setting [9]) and 4000 nM in assay [2] (Cricetulus griseus, CHO, CHO cells, thapsigargin store depletion). The “TGase activity remaining (% of DMSO control = 100)” value in the assay on transglutaminase (TGase) (setting [5]) and in the assay on transglutaminase (TGase) (setting [10]) was 108 in each case. Also, the x-Fold in assay [3] (setting [7]) worked out at 0.83; in assay [3] (setting [11]), 1.01; in assay [3] (setting [8]), 1.01.

“bis(3,3′-(phenyl-2-benzyl-2-amino-ethoxyboryl)benzyl)ether [Example 481]”: in assay [2] (setting [4]), the IC50 amounted to 1500 nM. The “TGase activity remaining (% of DMSO control = 100)” value in the assay with transglutaminase (TGase) (setting [5]) and with transglutaminase (TGase) (setting [10]) was 48 in each case. Moreover, the x-Fold in assay [3] (setting [11]) and in assay [3] (setting [8]) was 0.80 each time.

With “bis(3-chloro-4-methylphenyl 2-pyridylmethoxyborylphenyl)ether [Example 117]”, the 50% inhibitory concentration (IC50) in assay [2] (setting [4]) worked out at 1500 nM. Also, the “TGase activity remaining (% of DMSO control = 100)” value in the assay with transglutaminase (TGase) (setting [5]) is 108. In addition, the x-Fold in assay [3] (setting [8]) came out at 0.06.

For “bis(4,4′-(phenylaminoethoxyboryl)phenyl)ether [Example 5]”, the IC50 in assay [2] (setting [4]) worked out at 150 nM. The “TGase activity remaining (% of DMSO control = 100)” value with transglutaminase (TGase) (setting [5]) and with transglutaminase (TGase) (setting [6]) was −4 in each case. Also, the x-Fold in assay [3] (setting [7]) and in assay [3] (setting [8]) was 0.60 throughout.

Turning to “diphenyl(tyrosinate-O,N)borane [Example 264]”, in assay [2] (setting [4]), the IC50 worked out at 5000 nM. In addition, the “TGase activity remaining (% of DMSO control = 100)” value in the assay on transglutaminase (TGase) (setting [5]) and in the assay on transglutaminase (TGase) (setting [6]) was 109 in each case. Moreover, the x-Fold in assay [3] (setting [7]) and in assay [3] (setting [8]) was 1.00 in each case.

The values are drawn from patent US8853424B2 (Japan Science and Technology Agency, priority 2008, dated 2014).
